PMC6576746, “Rational discovery of dual-indication multi-target PDE/Kinase inhibitor for precision anti-cancer therapy using structural systems pharmacology” (PLoS Computational Biology, 2019)

Key:
Assay in all cases: biochemical
Design in all cases: DiscoverX KinomeScan competition binding assay across human kinases; per cent of control at 10 and 100 uM
[1] = target: T1, ZAK (Homo sapiens, UniProt Q9NYL2); conditions: competition binding, % of control
T1 construct: gene MAP3K20
Method: (§1) To validate our computational predictions, we employed a competition binding assay to detect the binding of levosimendan to 425 human kinases as well as its dose-response curve to RIOK1. The proprietary KinomeScan assay was performed by DiscoverX (Fremont, California, USA). The tests were performed at 10 μM and 100 μM concentrations of levosimendan, respectively. Assay results were reported as %control, calculated as follows: %control=(TestCompoundSignal−PositiveControlSignal)/(NegativeControlSignal−PositiveControlSignal)×100 KinomeScan assay across 452 human kinases verified our computational prediction (S1 Table). RIOK1 is one of the strongest inhibited kinases by levosimendan. The percentage control of RIOK1 is 15.0 and 0.0 under the treatment of 10 μM and 100 μM of levosimendan, respectively. […] The percentage controls of five kinases: FLT3, MAP2K5, PIP5K1A, GAK, and KIT are less than 30.0 under the treatment of both 10 μM and 100 μM of levosimendan. Both FLT3 and KIT are tyrosine protein kinases. Their inhibitors have recently been approved for the treatment of Acute Myeloid Leukemia and other types of cancers, but a combination therapy is needed to overcome rapidly emerged drug resistance, thus improve patients’ drug responses. Other kinases inhibited by levosimendan belong to serine/threonine protein kinase family (RIOK1, RIOK3, GAK, and MAP2K5) and lipid kinase family (PIP5K1A). […] As a result, levosimendan may modulate different cancer pathways from those by the tyrosine protein kinase inhibitors, and it could be a novel lead compound for a new anti-cancer therapy to overcome drug resistance of existing drugs or to target different types of cancers through polypharmacology or drug combination.

[2] = target: RIPK4 (Homo sapiens, UniProt P57078); conditions: competition binding, % of control; read-out: Percent Control (100 uM Levosimendan)
Method: as §1

[3] = target: T2, TAK1 (Homo sapiens, UniProt O43318); conditions: competition binding, % of control; read-out: Percent Control (100 uM Levosimendan)
T2 construct: gene MAP3K7
Method: as §1

[4] = target: NEK4 (Homo sapiens, UniProt P51957); conditions: competition binding, % of control; read-out: Percent Control (100 uM Levosimendan)
Method: as §1

[5] = target: CDK9 (Homo sapiens, UniProt P50750); conditions: competition binding, % of control; read-out: Percent Control (100 uM Levosimendan)
Method: as §1

[6] = target: T3, MEK3 (Homo sapiens, UniProt P46734); conditions: competition binding, % of control; read-out: Percent Control (100 uM Levosimendan)
T3 construct: gene MAP2K3
Method: as §1

[7] = target: T4, PIP5K2B (Homo sapiens, UniProt P78356); conditions: competition binding, % of control
T4 construct: gene PIP4K2B
Method: as §1

[8] = target: BTK (Homo sapiens, UniProt Q06187); conditions: competition binding, % of control; read-out: Percent Control (100 uM Levosimendan)
Method: as §1

[9] = target: T5, ICK (Homo sapiens, UniProt Q9UPZ9); conditions: competition binding, % of control; read-out: Percent Control (100 uM Levosimendan)
T5 construct: gene CILK1
Method: as §1

[10] = target: T6, NDR1 (Homo sapiens, UniProt Q15208); conditions: competition binding, % of control; read-out: Percent Control (100 uM Levosimendan)
T6 construct: gene STK38
Method: as §1

[11] = target: T7, ABL1(H396P)-nonphosphorylated (Homo sapiens, UniProt P00519, H396P); conditions: competition binding, % of control; read-out: Percent Control (100 uM Levosimendan)
T7 construct: nonphosphorylated
Method: as §1

[12] = target: KIT (Homo sapiens, UniProt P10721); conditions: competition binding, % of control
Method: as §1

[13] = target: CSNK1G2 (Homo sapiens, UniProt P78368); conditions: competition binding, % of control
Method: as §1

[14] = target: T8, MST4 (Homo sapiens, UniProt Q9P289); conditions: competition binding, % of control; read-out: Percent Control (100 uM Levosimendan)
T8 construct: gene STK26
Method: as §1

[15] = target: T9, SgK110 (Homo sapiens, UniProt P0C264); conditions: competition binding, % of control; read-out: Percent Control (100 uM Levosimendan)
T9 construct: gene SBK3
Method: as §1

[16] = target: T10, PIP5K2C (Homo sapiens, UniProt Q8TBX8); conditions: competition binding, % of control
T10 construct: gene PIP4K2C
Method: as §1

[17] = target: PDGFRB (Homo sapiens, UniProt P09619); conditions: competition binding, % of control
Method: as §1

[18] = target: SBK1 (Homo sapiens, UniProt Q52WX2); conditions: competition binding, % of control; read-out: Percent Control (100 uM Levosimendan)
Method: as §1

[19] = read-out: Percent Control (10 uM Levosimendan)
[20] = read-out: Percent Control (100 uM Levosimendan)

Chain of PDGFRB (P09619 whole entry): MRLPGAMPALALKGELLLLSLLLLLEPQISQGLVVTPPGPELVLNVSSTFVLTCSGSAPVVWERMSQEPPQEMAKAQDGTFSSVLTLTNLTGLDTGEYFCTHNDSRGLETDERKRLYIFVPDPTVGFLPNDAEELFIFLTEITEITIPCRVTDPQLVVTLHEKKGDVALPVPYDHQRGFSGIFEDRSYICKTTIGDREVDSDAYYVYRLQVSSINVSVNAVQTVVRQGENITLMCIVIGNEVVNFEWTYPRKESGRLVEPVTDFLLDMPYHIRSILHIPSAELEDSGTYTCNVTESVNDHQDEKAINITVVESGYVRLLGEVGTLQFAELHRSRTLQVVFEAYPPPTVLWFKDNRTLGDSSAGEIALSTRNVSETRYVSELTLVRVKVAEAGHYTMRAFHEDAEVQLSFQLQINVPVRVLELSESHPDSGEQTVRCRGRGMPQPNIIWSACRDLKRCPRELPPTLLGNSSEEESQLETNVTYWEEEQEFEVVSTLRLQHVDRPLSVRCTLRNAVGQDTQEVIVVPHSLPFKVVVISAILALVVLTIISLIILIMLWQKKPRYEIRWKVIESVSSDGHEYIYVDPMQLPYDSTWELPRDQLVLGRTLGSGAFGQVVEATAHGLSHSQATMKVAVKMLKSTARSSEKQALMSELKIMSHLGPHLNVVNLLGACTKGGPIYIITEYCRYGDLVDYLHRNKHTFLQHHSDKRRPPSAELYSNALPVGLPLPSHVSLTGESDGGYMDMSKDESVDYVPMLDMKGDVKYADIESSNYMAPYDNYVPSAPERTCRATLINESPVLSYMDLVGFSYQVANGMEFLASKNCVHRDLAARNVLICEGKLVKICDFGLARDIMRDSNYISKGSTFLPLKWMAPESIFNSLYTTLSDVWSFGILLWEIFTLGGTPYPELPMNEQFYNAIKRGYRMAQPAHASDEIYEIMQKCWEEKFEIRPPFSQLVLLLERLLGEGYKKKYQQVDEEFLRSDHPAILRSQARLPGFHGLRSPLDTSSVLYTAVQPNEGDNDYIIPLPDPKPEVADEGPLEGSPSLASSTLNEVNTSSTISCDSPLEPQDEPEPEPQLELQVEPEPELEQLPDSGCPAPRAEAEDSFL
T4 sequence (P78356 whole entry): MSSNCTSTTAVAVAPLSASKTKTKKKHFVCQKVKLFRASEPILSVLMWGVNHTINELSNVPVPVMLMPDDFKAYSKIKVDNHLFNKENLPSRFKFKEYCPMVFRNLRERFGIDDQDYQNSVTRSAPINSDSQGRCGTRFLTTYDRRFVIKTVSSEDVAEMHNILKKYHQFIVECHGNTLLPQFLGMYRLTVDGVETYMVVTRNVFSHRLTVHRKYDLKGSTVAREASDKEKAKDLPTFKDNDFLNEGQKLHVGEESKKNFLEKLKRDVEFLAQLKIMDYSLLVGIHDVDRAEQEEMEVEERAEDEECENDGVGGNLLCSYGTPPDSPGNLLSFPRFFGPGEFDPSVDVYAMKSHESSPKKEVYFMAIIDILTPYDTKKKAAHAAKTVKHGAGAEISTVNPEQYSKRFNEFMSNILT
T1 sequence (Q9NYL2 whole entry): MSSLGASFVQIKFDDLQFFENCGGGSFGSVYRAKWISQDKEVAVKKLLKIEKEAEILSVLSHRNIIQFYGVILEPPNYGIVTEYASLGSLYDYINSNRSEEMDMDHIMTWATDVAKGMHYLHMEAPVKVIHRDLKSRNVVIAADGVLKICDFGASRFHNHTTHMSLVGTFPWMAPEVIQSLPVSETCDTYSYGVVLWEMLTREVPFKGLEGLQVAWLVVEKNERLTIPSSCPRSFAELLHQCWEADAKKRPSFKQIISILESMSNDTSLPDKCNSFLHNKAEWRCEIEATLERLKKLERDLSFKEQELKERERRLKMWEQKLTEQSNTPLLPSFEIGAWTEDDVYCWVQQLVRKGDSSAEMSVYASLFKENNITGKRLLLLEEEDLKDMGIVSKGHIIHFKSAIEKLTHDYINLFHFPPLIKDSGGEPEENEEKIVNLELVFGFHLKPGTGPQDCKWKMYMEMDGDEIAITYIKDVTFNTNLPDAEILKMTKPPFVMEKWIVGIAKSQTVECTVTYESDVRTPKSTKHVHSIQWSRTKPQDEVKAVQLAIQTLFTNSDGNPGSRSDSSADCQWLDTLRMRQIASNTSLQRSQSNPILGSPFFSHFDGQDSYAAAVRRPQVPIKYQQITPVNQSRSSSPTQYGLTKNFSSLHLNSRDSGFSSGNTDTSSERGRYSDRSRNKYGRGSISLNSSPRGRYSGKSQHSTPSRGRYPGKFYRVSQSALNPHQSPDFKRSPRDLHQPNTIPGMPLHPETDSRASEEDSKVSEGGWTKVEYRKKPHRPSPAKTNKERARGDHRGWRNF
T10 sequence (Q8TBX8 whole entry): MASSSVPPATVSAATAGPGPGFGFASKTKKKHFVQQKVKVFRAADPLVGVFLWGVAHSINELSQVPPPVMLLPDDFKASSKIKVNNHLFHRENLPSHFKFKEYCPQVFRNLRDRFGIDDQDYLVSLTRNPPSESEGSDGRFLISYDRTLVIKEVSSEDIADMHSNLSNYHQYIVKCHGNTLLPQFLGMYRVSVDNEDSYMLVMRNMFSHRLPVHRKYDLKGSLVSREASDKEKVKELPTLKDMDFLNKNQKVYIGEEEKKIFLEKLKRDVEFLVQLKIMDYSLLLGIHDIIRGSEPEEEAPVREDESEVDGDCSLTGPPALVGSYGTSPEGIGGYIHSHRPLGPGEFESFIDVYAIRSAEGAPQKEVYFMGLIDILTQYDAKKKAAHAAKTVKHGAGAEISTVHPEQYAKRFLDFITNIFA
Chain of CSNK1G2 (P78368 whole entry): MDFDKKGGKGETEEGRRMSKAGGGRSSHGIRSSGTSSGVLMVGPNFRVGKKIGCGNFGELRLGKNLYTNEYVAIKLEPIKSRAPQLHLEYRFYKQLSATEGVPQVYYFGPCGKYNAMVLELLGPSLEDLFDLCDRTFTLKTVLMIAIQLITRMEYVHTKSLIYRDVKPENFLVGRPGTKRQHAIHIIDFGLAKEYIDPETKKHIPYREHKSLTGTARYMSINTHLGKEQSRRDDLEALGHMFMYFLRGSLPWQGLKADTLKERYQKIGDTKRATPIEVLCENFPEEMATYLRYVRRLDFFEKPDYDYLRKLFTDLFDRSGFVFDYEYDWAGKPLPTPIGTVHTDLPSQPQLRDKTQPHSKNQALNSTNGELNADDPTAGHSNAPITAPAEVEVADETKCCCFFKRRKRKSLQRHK
Chain of KIT (P10721 whole entry): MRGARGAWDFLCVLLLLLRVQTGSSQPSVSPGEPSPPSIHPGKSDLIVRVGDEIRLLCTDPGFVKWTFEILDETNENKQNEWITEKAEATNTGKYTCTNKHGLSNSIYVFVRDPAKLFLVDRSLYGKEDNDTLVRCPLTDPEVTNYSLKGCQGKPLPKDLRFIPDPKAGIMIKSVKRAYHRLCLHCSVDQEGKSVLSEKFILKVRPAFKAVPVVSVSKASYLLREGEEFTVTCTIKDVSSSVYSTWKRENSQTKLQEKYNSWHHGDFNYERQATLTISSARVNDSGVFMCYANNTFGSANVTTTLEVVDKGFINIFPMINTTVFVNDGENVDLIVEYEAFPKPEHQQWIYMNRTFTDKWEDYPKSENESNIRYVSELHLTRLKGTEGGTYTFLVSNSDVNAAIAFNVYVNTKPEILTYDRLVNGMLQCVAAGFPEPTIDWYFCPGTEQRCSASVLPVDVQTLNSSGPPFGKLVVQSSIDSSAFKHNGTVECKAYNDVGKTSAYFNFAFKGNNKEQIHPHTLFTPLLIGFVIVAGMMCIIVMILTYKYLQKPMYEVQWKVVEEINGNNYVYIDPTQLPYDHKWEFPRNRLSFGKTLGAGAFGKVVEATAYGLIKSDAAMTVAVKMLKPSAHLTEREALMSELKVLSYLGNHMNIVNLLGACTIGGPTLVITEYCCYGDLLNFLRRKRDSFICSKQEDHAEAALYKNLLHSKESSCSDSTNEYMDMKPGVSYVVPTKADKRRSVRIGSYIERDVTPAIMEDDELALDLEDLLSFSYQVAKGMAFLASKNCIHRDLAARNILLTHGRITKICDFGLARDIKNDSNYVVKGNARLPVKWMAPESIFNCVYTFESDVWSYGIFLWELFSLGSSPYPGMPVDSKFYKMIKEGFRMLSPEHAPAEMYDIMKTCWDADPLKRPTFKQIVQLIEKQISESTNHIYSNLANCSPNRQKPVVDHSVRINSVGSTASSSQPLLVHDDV
Chain of CDK9 (P50750 whole entry): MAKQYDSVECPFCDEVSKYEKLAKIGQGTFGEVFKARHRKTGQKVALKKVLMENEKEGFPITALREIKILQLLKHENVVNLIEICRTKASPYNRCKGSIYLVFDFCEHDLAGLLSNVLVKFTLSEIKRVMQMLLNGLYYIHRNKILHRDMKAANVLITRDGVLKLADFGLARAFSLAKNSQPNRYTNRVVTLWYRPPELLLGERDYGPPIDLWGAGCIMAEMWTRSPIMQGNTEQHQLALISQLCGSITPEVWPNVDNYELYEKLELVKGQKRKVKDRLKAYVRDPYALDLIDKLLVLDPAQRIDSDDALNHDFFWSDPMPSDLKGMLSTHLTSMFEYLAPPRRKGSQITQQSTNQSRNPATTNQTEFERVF
T6 sequence (Q15208 whole entry): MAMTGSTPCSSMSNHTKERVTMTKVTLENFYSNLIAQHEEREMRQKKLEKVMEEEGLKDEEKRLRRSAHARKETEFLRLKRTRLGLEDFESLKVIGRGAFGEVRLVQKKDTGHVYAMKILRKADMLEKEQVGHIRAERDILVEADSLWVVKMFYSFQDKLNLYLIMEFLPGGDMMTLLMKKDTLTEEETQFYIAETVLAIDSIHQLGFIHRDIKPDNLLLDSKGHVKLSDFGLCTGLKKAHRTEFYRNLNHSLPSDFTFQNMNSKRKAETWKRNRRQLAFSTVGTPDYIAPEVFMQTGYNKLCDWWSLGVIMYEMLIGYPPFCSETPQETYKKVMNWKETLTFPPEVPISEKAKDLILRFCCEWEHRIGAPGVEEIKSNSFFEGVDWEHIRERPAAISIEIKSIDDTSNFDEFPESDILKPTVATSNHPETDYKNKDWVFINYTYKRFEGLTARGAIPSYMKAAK

- remaining binding at 10 µM [1, 19]: 100%
- remaining binding at 100 µM [1, 20]: 52%
- remaining binding at 100 µM [2]: 99%
- remaining binding at 100 µM [3]: 78%
- remaining binding at 100 µM [4]: 100%
- remaining binding at 100 µM [5]: 100%
- remaining binding at 100 µM [6]: 57%
- remaining binding at 10 µM [7, 19]: 92%
- remaining binding at 100 µM [7, 20]: 14%
- remaining binding at 100 µM [8]: 100%
- remaining binding at 100 µM [9]: 94%
- remaining binding at 100 µM [10]: 62%
- remaining binding at 100 µM [11]: 60%
- remaining binding at 10 µM [12, 19]: 26%
- remaining binding at 100 µM [12, 20]: 3.5%
- remaining binding at 10 µM [13, 19]: 62%
- remaining binding at 100 µM [13, 20]: 4.8%
- remaining binding at 100 µM [14]: 71%
- remaining binding at 100 µM [15]: 100%
- remaining binding at 10 µM [16, 19]: 52%
- remaining binding at 100 µM [16, 20]: 5.9%
- remaining binding at 10 µM [17, 19]: 58%
- remaining binding at 100 µM [17, 20]: 12%
- remaining binding at 100 µM [18]: 78%
Structure (SMILES): C[C@@H]1CC(=O)NN=C1c1ccc(NN=C(C#N)C#N)cc1 [levosimendan]
